What was measured:
Diaphorase [1] = test: Inhibition of diaphorase by dicoumarol: NADH and dicoumarol titrated into PBS exposed to diaphorase-coated carbon working electrodes; type: biochemical
Method: Example 1: Inhibition of Diaphorase by Dicoumarol. For this example, the spotting formulations shown in Table 1 below were coated onto separate carbon working electrodes. A micro-syringe was use to deposit 35 nL of each formulation as a single spot having an area of around 0.2 mm^2 upon separate carbon working electrodes. Following deposition, the working electrodes were cured overnight at 25° C.
The electrodes were exposed to fresh phosphate buffered saline (PBS) solutions, and varying amounts of NADH and dicoumarol were then titrated into the buffered solutions. No glucose or GDH was added to “power” the sensors and complete the enzyme system specified above (FIG. 3B). […] To the buffered solution containing 30 μM NADH was then titrated dicoumarol up to a concentration of 100 μM. […] FIG. 10 is a graph showing the results of titrating NADH and dicoumarol (DCM) into PBS solutions exposed to the analyte sensors of Example 1 (Sensors 1-4). […] A higher signal resulted for Sensor 2 as a result of its higher concentration of diaphorase. Given the goal of making the sensor response to be diaphorase limited, further optimization work centered around optimizing the sensor response at a low-concentration loading of the diaphorase. […]

Diaphorase [2] = test: Detection of dicoumarol with sensors whose active area holds glucose dehydrogenase, NAD and rate-limiting diaphorase: glucose and dicoumarol titrated into PBS; type: biochemical; details: Sensors 5-8; PBS with 500 μM NAD, glucose up to 50 μM; DCM titrated up to 160 μM
Method: Example 2: Detection of Dicoumarol Using an Analyte Sensor Having an Active Area with Glucose Dehydrogenase and a Rate-Limited Electron Transfer to the Working Electrode. For this example, the spotting formulations shown in Table 2 below were coated onto separate carbon working electrodes. A micro-syringe was use to deposit 35 nL of each formulation as a single spot having an area of around 0.2 mm^2 upon separate carbon working electrodes. Following deposition, the working electrodes were cured overnight at 25° C.
Glucose and dicoumarol were then titrated to PBS solutions in which the sensors were immersed. A 500 μM quantity of NAD was first added to the buffer solution, followed by three additions of glucose up to 50 μM. Thereafter, dicoumarol (DCM) was titrated up to 160 μM. FIGS. 14A and 14B are graphs showing the results of titrating glucose and dicoumarol (DCM) into PBS solutions exposed to electrodes having variable amounts of NAD-dependent glucose dehydrogenase in an active area thereon. […] As shown, increasing amounts of glucose dehydrogenase increased the signal response during glucose addition and during DCM addition.

With `O=c1oc2ccccc2c(O)c1Cc1c(O)c2ccccc2oc1=O` [dicoumarol] the “normalized sensor response as a function of dicoumarol concentration (FIGS. 11A, 11B, 13)” value (Diaphorase [1]; 0.2 mg/mL diaphorase, 0.4 mg/mL electron transfer agent, NADH titrated up to 160 μM) was “strong inhibition”, the “sensor signal as the dicoumarol concentration increased (FIG. 10)” value (Diaphorase [1]; only Sensors 2 and 4 (0.4 mg/mL Formula 1 polymer), PBS with 30 μM NADH, dicoumarol titrated up to 100 μM, no glucose or GDH) was “sudden and sensitive decrease in signal” and the “sensor current response during DCM addition (FIGS. 14A, 14B)” value (Diaphorase [2]) was “response decreased as increasing amounts of DCM were added”.

Source: US20210369155A1, “Analyte Sensors and Sensing Methods for Detecting Inhibitors of Diaphorase” (Abbott Diabetes Care Inc., priority 2020, published 2021)
